Several values for one entry are separate records, joined by “and”; a condition that tells them apart may be missing. Equal values may be shown once. Toxic doses and inconclusive results are not listed. How the source made its calls: active means survival T/C of 150% or more; inactive means T/C below 125% in these data.
System: BDF1 mice, B16 melanoma ip, median survival T/C
Assay: NCI In Vivo Anticancer Drug Screen. Data for tumor model B16 Melanoma (intraperitoneal) in B6D2F1 (BDF1) mice
Conditions: endpoint: median survival time, higher = longer survival
Method in brief: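 Antitumor activity is assessed in mice bearing a transplanted tumor, with survival or tumor size compared against vehicle-dosed controls and expressed as T/C.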

Measured: T/C

O=C1CC(=O)C(Br)=C1Br
inactive: dose: 0.08 mg/kg/injection, schedule: Q01DX009 (ip), vehicle: saline with Tween-80 97 % of control | dose: 0.15 mg/kg/injection, schedule: Q01DX009 (ip), vehicle: saline with Tween-80 93 % of control | dose: 0.3 mg/kg/injection, schedule: Q01DX009 (ip), vehicle: saline with Tween-80 95 % of control | dose: 0.37 mg/kg/injection, schedule: Q04DX003 (ip), vehicle: saline with Tween-80 94 % of control | dose: 75.0 micrograms/kg/injection, schedule: Q04DX003 (ip), vehicle: saline with Tween-80 92 % of control | dose: 150.0 micrograms/kg/injection, schedule: Q04DX003 (ip), vehicle: saline with Tween-80 92 % of control | dose: 300.0 micrograms/kg/injection, schedule: Q04DX003 (ip), vehicle: saline with Tween-80 91 % of control

C1CNCCN1
inactive: dose: 25.0 mg/kg/injection, schedule: Q01DX009 (ip), vehicle: suspension in saline 93 % of control | dose: 50.0 mg/kg/injection, schedule: Q01DX009 (ip), vehicle: suspension in saline 102 % of control | dose: 100.0 mg/kg/injection, schedule: Q01DX009 (ip), vehicle: suspension in saline 106 % of control | dose: 200.0 mg/kg/injection, schedule: Q01DX009 (ip), vehicle: suspension in saline 90 % of control

N#CCCc1ccccc1
inactive: dose: 3.13 mg/kg/injection, schedule: Q01DX009 (ip), vehicle: saline 100 % of control | dose: 6.25 mg/kg/injection, schedule: Q01DX009 (ip), vehicle: saline 97 % of control | dose: 12.5 mg/kg/injection, schedule: Q01DX009 (ip), vehicle: saline 100 % of control

CC(C)CN(C)/N=N/c1nc[nH]c1C(N)=O
inactive: dose: 18.75 mg/kg/injection, schedule: Q01DX009 (ip), vehicle: carboxymethylcellulose (CMC) 111 % of control | dose: 75.0 mg/kg/injection, schedule: Q01DX009 (ip), vehicle: carboxymethylcellulose (CMC) 123 % of control

COc1ccc(CSCC(NC(=O)OC(C)(C)C)C(=O)O)cc1 (stereo not drawn)
inactive: dose: 100.0 mg/kg/injection, schedule: Q01DX009 (ip), vehicle: Klucel (hydroxypropylcellulose) (HPC) 110 % of control | dose: 200.0 mg/kg/injection, schedule: Q01DX009 (ip), vehicle: Klucel (hydroxypropylcellulose) (HPC) 97 % of control | dose: 400.0 mg/kg/injection, schedule: Q01DX009 (ip), vehicle: Klucel (hydroxypropylcellulose) (HPC) 95 % of control

COc1ccc(C2=C(c3ccccc3)C(c3ccccc3)=C(c3ccc(OC)cc3)C2=O)cc1
inactive: dose: 50.0 mg/kg/injection, schedule: Q01DX009 (ip), vehicle: saline with Tween-80 94 % of control | dose: 100.0 mg/kg/injection, schedule: Q01DX009 (ip), vehicle: saline with Tween-80 95 % of control | dose: 200.0 mg/kg/injection, schedule: Q01DX009 (ip), vehicle: saline with Tween-80 95 % of control | dose: 400.0 mg/kg/injection, schedule: Q01DX009 (ip), vehicle: saline with Tween-80 94 % of control

CC1NC(=O)C2Cc3ccc(O)c(c3)Oc3ccc(cc3)C(O)C(C(=O)N2C)N(C)C(=O)C(C)NC(=O)C(Cc2ccc(O)cc2)N(C)C(=O)C(C)NC1=O (stereo not drawn)
inactive: dose: 1.0 mg/kg/injection, schedule: Q01DX009 (ip), vehicle: saline with Tween-80 97 % of control | dose: 2.0 mg/kg/injection, schedule: Q01DX009 (ip), vehicle: saline with Tween-80 91 % of control | dose: 4.0 mg/kg/injection, schedule: Q01DX009 (ip), vehicle: saline with Tween-80 99 % of control | dose: 8.0 mg/kg/injection, schedule: Q01DX009 (ip), vehicle: saline with Tween-80 96 % of control | dose: 16.0 mg/kg/injection, schedule: Q01DX009 (ip), vehicle: saline with Tween-80 94 % of control

COc1ccc([I+]c2ccc(OC)cc2)cc1
inactive: dose: 0.75 mg/kg/injection, schedule: Q01DX009 (ip), vehicle: saline with Tween-80 95 % of control | dose: 1.5 mg/kg/injection, schedule: Q01DX009 (ip), vehicle: saline with Tween-80 95 % of control | dose: 3.0 mg/kg/injection, schedule: Q01DX009 (ip), vehicle: saline with Tween-80 100 % of control

Cc1cc(C)[nH]c(=O)n1
inactive: dose: 25.0 mg/kg/injection, schedule: Q01DX009 (ip), vehicle: saline 115 % of control | dose: 50.0 mg/kg/injection, schedule: Q01DX009 (ip), vehicle: saline 101 % of control | dose: 100.0 mg/kg/injection, schedule: Q01DX009 (ip), vehicle: saline 102 % of control

O=C(N/N=C/c1ccc(N(CCCl)CCCl)cc1)c1ccc(C(=O)N/N=C/c2ccc(N(CCCl)CCCl)cc2)cc1
inactive: dose: 25.0 mg/kg/injection, schedule: Q04DX003 (ip), vehicle: Klucel (hydroxypropylcellulose) (HPC) 97 % of control | dose: 50.0 mg/kg/injection, schedule: Q04DX003 (ip), vehicle: Klucel (hydroxypropylcellulose) (HPC) 90 % of control and 100 % of control | dose: 100.0 mg/kg/injection, schedule: Q04DX003 (ip), vehicle: Klucel (hydroxypropylcellulose) (HPC) 97 % of control | dose: 200.0 mg/kg/injection, schedule: Q04DX003 (ip), vehicle: Klucel (hydroxypropylcellulose) (HPC) 90 % of control and 95 % of control

Source: PubChem BioAssay AID192 (DTP/NCI, 2004)
